The results in this text go back to publication PMC2751816, “Functional, Non-Clonal IgM^a-Restricted B Cell Receptor Interactions with the HIV-1 Envelope gp41 Membrane Proximal External Region” (PLoS ONE, 2009).

A word on the Kd: it is the concentration at which binding is half-saturated.

Experiment [1] relates to BALB/c B cells (gp41 MPER tetramer binding). In words: Cold inhibition of APC-labeled gp41 MPER tetramer binding by unlabeled tetramers. The format is cell-based, mouse (BALB/c). Particulars: unlabeled competitor tetramer pre-incubated; Fig. 4A,B; average of three experiments (4B). Here is the method: FACS staining of single cell suspensions (≥2×10^6) was conducted using pre-mixed combinations of fluorochrome-labeled Abs and APC-conjugated B cell tetramers at empirically-determined optimal concentrations. All Abs were from BD unless otherwise stated. Primary antibodies used were: PerCP anti-B220, FITC anti-IgD, FITC, PE or PE-Cy7 anti-IgM, PE anti-CD5, FITC anti-CD11b, PE-Cy7 anti-CD19, FITC anti-CD21, PE-Cy7 anti-CD23 (eBiosciences), and PE-Cy7 anti-CD93 (eBiosciences). Other reagents included biotinylated Abs against dump channel markers: Thy1 (Abcam), F4/80 (Abcam), CD11c, Gr-1, TER-119, and NK-1.1, secondary staining SA-Texas Red conjugate; v-amine live/dead violet dye (Molecular Probes), and Fc block (anti-CD16/32).
Staining was conducted at 4°C in several sequential steps in FACS staining buffer (1X PBS with 2% FCS, 0.1% NaN3), washing twice between steps. Cells were first incubated with v-amine live/dead dye for 15 min, then stained with APC-labeled tetramers for 30 min (and in some experiments, cold tetramer was incubated at 10 fold molar excess for 1 h, prior to staining with APC-labeled tetramers). Cells were then stained with Fc block, followed by incubation with combinations of primary Abs, and secondary staining with SA-Texas Red, each for 30 min. Data (≥2.5×10^5 events/sample) were acquired using an LSRII flow cytometer and Cell Quest software (BD Immunocytometry systems). FACS Analysis was performed using FlowJo software (Tree Star). For analysis, cells were gated in the following order: single cells were gated based on fsc height vs. fsc area+ssc height vs. ssc profiles, lymphocytes were gated on fsc and ssc profile, residual dead cells were excluded by negative gating with v-amine live/dead dye, and irrelevant non-B cells were excluded by negative gating with dump markers.

The target of experiment [2] is gp41 MPER peptide (nominal 2F5 epitope of the HIV-1 gp41 membrane proximal external region), N-biotinylated (HIV-1). In words: SPR; monomeric or F(ab)2 IgM fragments injected over biotinylated peptides anchored to a SA-coated sensor chip; BIAcore 3000, BIAevaluation 4.1. On the technique in general: Surface plasmon resonance follows binding to a sensor surface in real time, without labels.

As for “DWEYSLWLSN [dsDNA tetramers, double-stranded DNA (dsDNA) mimic tetramer made from the R4A peptide […], reference compound]”, the “inhibition of APC-labeled gp41 MPER tetramer binding (in words)” value in experiment [1] is listed as “minimal competition with gp41 MPER binding”.
Substance “monomeric IgM^a fragment of the purified mouse TNP-KLH-specific IgM^a mAb, BD clone G155-228 (antibody)” had a Kd in experiment [2] of 276 nM.
